Experimental data reported in patent US10882856B2 (BeiGene, Ltd., priority 2017, dated 2021).

How the values were obtained:
IDO1 [1] = target: T1, IDO1 (Homo sapiens, UniProt P14902); assay: IDO1 enzymatic assay; assay type: biochemical; set-up: His tag (N); made in house; host or cells: E. coli; conditions: read-out: Enzyme IC50 IDO1
Method in brief: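 Assays were run in 50 mM potassium phosphate pH 7.5 with 0.1% BSA for 1.5 hours at 24 °C. Each contained 50 nM E. coli-purified, N-terminally His-tagged IDO1, compound, 1.3 mM D-tryptophan, 5 mM L-ascorbic acid, methylene blue and 0.4 mg/mL catalase. IC50 was calculated from remaining enzyme activity across a rising compound series, with activity taken as the slope of N'-formylkynurenine formation read continuously at 321 nm for 1 hour.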

IDO1 [2] = target: T1, IDO1; assay: Hela cell-based IDO1 assay; conditions: Hela cells
Method in brief: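 HeLa cells were plated at 8000 per well in 96-well plates containing phenol red-free DMEM with 10% FBS, and after 4 hours compound dilutions made in DMSO were added together with IFN-γ (final 100 ng/mL) and 0.4 mM L-Trp before 48 hours at 37 °C, 5% CO2. Supernatants were deproteinised with trichloroacetic acid, mixed with 2% 4-(dimethylamino)benzaldehyde and read at 480 nm for kynurenine. Four-parameter logistic fits were run in XLfit. Potency was derived from these fits.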

[3] = target: T2, cellular TDO2 in HEK293-TDO2 cells (Homo sapiens, UniProt P48775); assay: 293-TDO2 cell-based assay (Kyn colorimetric); conditions: 48 hours of incubation
T2 construct: expressed in transfected cells; host or cells: HEK293 (ATCC), stably transfected
T2 sequence (P48775 whole entry): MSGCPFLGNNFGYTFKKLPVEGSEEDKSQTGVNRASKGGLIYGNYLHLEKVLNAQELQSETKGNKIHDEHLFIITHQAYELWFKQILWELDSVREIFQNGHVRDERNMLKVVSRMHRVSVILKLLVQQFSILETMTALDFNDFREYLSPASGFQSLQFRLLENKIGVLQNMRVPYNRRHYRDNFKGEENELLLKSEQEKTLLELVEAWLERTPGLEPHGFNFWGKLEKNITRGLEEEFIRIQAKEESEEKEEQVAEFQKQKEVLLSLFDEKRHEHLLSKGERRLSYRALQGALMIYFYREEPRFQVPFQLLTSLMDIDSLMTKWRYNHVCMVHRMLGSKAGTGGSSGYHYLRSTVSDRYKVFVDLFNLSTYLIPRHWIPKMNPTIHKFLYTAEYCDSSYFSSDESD
Method in brief: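 Kyn formed from L-Trp was read colorimetrically at 480 nm (TCA deproteinisation, then 2% 4-(dimethylamino)benzaldehyde). Compounds were added to 293-TDO2 cells 4 h post-seeding and left 48 h at 37° C. A four-parameter logistic model gave IC50 values.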

T1 sequence (P14902 whole entry): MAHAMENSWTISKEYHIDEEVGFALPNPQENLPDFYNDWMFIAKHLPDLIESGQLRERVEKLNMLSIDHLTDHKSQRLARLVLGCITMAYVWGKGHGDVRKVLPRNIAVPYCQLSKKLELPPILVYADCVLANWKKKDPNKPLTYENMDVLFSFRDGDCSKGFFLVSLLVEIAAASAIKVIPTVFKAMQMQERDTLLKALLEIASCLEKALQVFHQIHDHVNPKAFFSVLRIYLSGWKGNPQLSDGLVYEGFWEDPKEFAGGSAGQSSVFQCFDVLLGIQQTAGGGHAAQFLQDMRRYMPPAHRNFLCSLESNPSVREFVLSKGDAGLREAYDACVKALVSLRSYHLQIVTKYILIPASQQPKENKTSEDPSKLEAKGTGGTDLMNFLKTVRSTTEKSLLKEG

SMILES	IC50 (IDO1 [1]) [µM]	EC50 (IDO1 [2]) [µM]	EC50 [3] [µM]
OC(c1c(C2CC2)ccc2cncn12)C1CCC(c2ccc(Br)cc2)CC1 (stereo not drawn) [Example D118, (4-(4-bromophenyl)cyclohexyl)(6-cyclopropylimidazo[1,5-a]pyridin-5-yl)methanol]	0.044	0.546	> 10
CC(C)c1ccc2cncn2c1[C@H](O)[C@H]1CC[C@H](c2cccc(F)c2)CC1 (single isomer, unassigned) [Example D167b]	9.8	2.79	> 10
OC(c1c(C2CC2)ccc2cncn12)C1CCC(c2ccccc2)CC1 (stereo not drawn) [Example D101, (6-cyclopropylimidazo[1,5-a]pyridin-5-yl)(4-phenylcyclohexyl)methanol]	0.027	0.1	> 10
Oc1ccccc1[C@H]1CC[C@H]([C@H](O)c2c(C3CC3)ccc3cncn23)CC1 (single isomer, unassigned) [Example D112a]	0.015	0.026	> 10
O[C@@H](c1c(C2CC2)ccc2cncn12)[C@H]1CC[C@H](c2cc(F)cc(F)c2)CC1 (single isomer, unassigned) [Example D144b]	8	6.41	> 10
OC(c1c(C2CC2)ccn2cncc12)C1CCN(c2ccc(F)c3cccnc23)CC1 (single isomer, unassigned) [Example C155a]	7.5	> 10	> 10
O[C@@H](c1c(C2CC2)ccc2cncn12)[C@H]1CC[C@H](c2ccc(Br)cc2)CC1 (single isomer, unassigned) [Example D118b]	> 10	8.41	> 10
O[C@@H](c1c(C2CC2)ccc2cncn12)[C@H]1CC[C@H](c2ccc(F)c(F)c2F)CC1 (single isomer, unassigned) [Example D145b]	> 10	9.49	> 10
COc1ccc([C@H]2CC[C@H]([C@H](O)c3c(C4CC4)ccc4cncn34)CC2)c(Cl)c1 (single isomer, unassigned) [Example D147a]	0.02	0.198	> 10
COc1cccc([C@H]2CC[C@H]([C@H](O)c3c(C(C)C)ccc4cncn34)CC2)c1 (single isomer, unassigned) [Example D169a]	0.015	0.014	> 10
OC(c1c(C2CC2)ccc2cncn12)C1CCC(c2ccc(F)cc2)CC1 (stereo not drawn) [Example D104, (6-cyclopropylimidazo[1,5-a]pyridin-5-yl)(4-(4-fluorophenyl)cyclohexyl)methanol]	0.033	0.044	> 10
CN(C)C(=O)c1ccc([C@H]2CC[C@H]([C@@H](O)c3c(C4CC4)ccc4cncn34)CC2)cc1 (single isomer, unassigned) [Example D125b]	1.6	9.77	> 10
O[C@H](c1c(C2CC2)ccn2cncc12)[C@H]1CC[C@H](c2ccnc3ccccc32)CC1 (single isomer, unassigned) [Example C130a]	0.017	0.044	> 10
OC(c1c(C2CC2)ccn2cncc12)C1CCN(c2ccccc2)CC1 (single isomer, unassigned) [Example C136b]	5.4	> 10	> 10
COc1ccccc1C1CCC(C(O)c2c(C3CC3)ccn3cncc23)CC1 (stereo not drawn) [Example C113, (7-Cyclopropylimidazo[1,5-a]pyridin-8-yl)(4-(2-methoxyphenyl)cyclohexyl)methan]	0.055	0.149	> 10
Cc1ccccc1[C@H]1CC[C@H]([C@@H](O)c2c(C3CC3)ccn3cncc23)CC1 (single isomer, unassigned) [Example C112b]	> 10	> 10	> 10
OC(c1c(C2CC2)ccc2cncn12)C1CCC(c2ccc(OC(F)(F)F)cc2)CC1 (stereo not drawn) [Example D105, (6-cyclopropylimidazo[1,5-a]pyridin-5-yl)(4-(4-trifluoromethoxy)phenylcyclohexyl)methanol]	0.076	0.869	> 10
O[C@@H](c1c(C2CC2)ccc2cncn12)[C@H]1CC[C@H](c2ccc(OC(F)(F)F)cc2)CC1 (single isomer, unassigned) [Example D105b]	> 10	3.9	> 10
OC(c1c(C2CC2)ccn2cncc12)C1CCC(c2cccc3ccccc23)CC1 (stereo not drawn) [Example C121, (7-cyclopropylimidazo[1,5-a]pyridin-8-yl)(4-(naphthalen-1-yl)cyclohexyl)methanol]	0.094	0.125	> 10

SMILES	IC50 (IDO1 [1]) [µM]	EC50 (IDO1 [2]) [µM]	EC50 [3] [µM]
O=C(O)c1ccc(C2CCC(C(O)c3c(C4CC4)ccc4cncn34)CC2)cc1 (stereo not drawn) [Example D111, 4-(4-((6-cyclopropylimidazo[1,5-a]pyridin-5-yl)(hydroxy)methyl)cyclohexyl)benzoic acid]	0.025	0.47	> 10
OC(c1c(C2CC2)ccc2cncn12)C1CCC(c2ccc(Cl)c(F)c2)CC1 (stereo not drawn) [Example D128, (4-(4-chloro-3-fluorophenyl)cyclohexyl)(6-cyclopropylimidazo[1,5-a]pyridin-5-yl)methanol]	0.041	0.26	> 10
CC(C)c1ccc2cncn2c1[C@H](O)[C@H]1CC[C@H](c2ccc(F)cc2)CC1 (single isomer, unassigned) [Example D166b]	> 10	5.21	> 10
OC(c1c(C2CC2)ccc2cncn12)C1CCC(c2ccc(Cl)cc2F)CC1 (stereo not drawn) [Example D131, (4-(4-chloro-2-fluorophenyl)cyclohexyl)(6-cyclopropylimidazo[1,5-a]pyridin-5-yl)methanol]	0.047	0.578	> 10
O[C@H](c1c(C2CC2)ccc2cncn12)C1CCN(c2ccc(Cl)cc2)CC1 (single isomer, unassigned) [Example D174a]	0.015	0.08	> 10
O[C@H](c1c(C2CC2)ccc2cncn12)[C@H]1CC[C@H](c2ccc(Cl)c(F)c2)CC1 (single isomer, unassigned) [Example D128a]	0.019	0.127	> 10
COc1ccc([C@H]2CC[C@H](C(O)c3c(C4CC4)ccc4cncn34)CC2)c2ccccc12 (single isomer, unassigned) [Example D139a]	0.033	0.443	> 10
O[C@H](c1cc(Cl)cc2cncn12)[C@H]1CC[C@H](c2ccc3ccccc3c2)CC1 (single isomer, unassigned) [Example E104a]	0.029	3.7	> 10
CN(C)C(=O)c1ccc(C2CCC(C(O)c3c(C4CC4)ccc4cncn34)CC2)cc1 (stereo not drawn) [Example D125, 4-(4-((6-cyclopropylimidazo[1,5-a]pyridin-5-yl)(hydroxy)methyl)cyclohexyl)-N,N-dimethylbenzamide]	0.024	0.843	> 10
Cc1cccc([C@H]2CC[C@H]([C@@H](O)c3c(C4CC4)ccn4cncc34)CC2)c1 (single isomer, unassigned) [Example C111b]	> 10	> 10	> 10
OC(c1c(C2CC2)ccn2cncc12)C1CCN(c2ccc(F)c3cccnc23)CC1 (single isomer, unassigned) [Example C155b]	0.026	0.04	> 10
O[C@@H](c1c(C2CC2)ccc2cncn12)[C@H]1CC[C@H](c2ccnc3ccc(F)cc32)CC1 (single isomer, unassigned) [Example D150b]	1.4	1.1	> 10
O=C(Nc1ccc(C2CCC(C(O)c3c(C4CC4)ccc4cncn34)CC2)cc1)OCc1ccccc1 (stereo not drawn) [Example D121]	0.073	0.606	> 10
O[C@@H](c1c(C2CC2)ccc2cncn12)[C@H]1CC[C@H](c2ccc(F)c3ccccc32)CC1 (single isomer, unassigned) [Example D137b]	1.7	2.1	> 10
O[C@@H](c1c(C2CC2)ccc2cncn12)[C@H]1CC[C@H](c2cccc3ncccc32)CC1 (single isomer, unassigned) [Example D141b]	3.8	7.58	> 10
CC(C)c1ccc2cncn2c1[C@@H](O)[C@H]1CC[C@H](c2ccc(F)cc2)CC1 (single isomer, unassigned) [Example D166a]	0.026	0.014	> 10
OC(c1c(C2CC2)ccc2cncn12)[C@H]1CC[C@H](c2ccc3ccsc3c2)CC1 (single isomer, unassigned) [Example D134b]	2.7	5.67	> 10
O[C@@H](c1c(C2CC2)ccn2cncc12)[C@H]1CC[C@H](c2ccc(OC3CCCC3)cc2)CC1 (single isomer, unassigned) [Example C118b]	3	> 10	> 10
